{
  "source": "patent US12398087B2",
  "about": "“Methods of making bempedoic acid and compositions of the same” (Esperion Therapeutics, Inc., priority 2019, dated 2025)",
  "key": {"[1]": {"assay": "Thermogravimetric analysis (TGA)", "type": "physicochemical", "details": "crystalline form; heated at 10° C./minute from ~25° C. to about 315° C.", "method": "Thermogravimetric analysis (TGA) data for the crystalline form of the compound of formula (V) were collected using a TA Discovery 550 TGA instrument. The TGA instrument was calibrated using a nickel reference standard. Samples of the crystalline form of the compound of formula (V) were placed in open platinum sample pans and heated at a rate of 10° C./minute from about ambient temperature (˜ 25° C.) to about 315° C."}, "[2]": {"assay": "Water sorption by dynamic vapor sorption", "type": "physicochemical", "details": "crystalline form; relative humidity of 80%, temperature of 25° C.", "method": "The crystalline form of the compound of formula (V) may also be characterized according to its water sorption properties. […] In certain embodiments, the crystalline form of the compound of formula (V) has a water sorption isotherm, when measured at 25° C., substantially the same as shown in FIG. 6."}},
  "data": [
    {"smiles": "CC(C)(CCCCCC(O)CCCCCC(C)(C)C(=O)O)C(=O)O", "note": "[compound of formula (V), 8-hydroxy-2,2,14,14-tetramethylpentadecanedioic acid]", "values": [
      {"measurement": "weight loss in TGA curve", "setting": "[1]", "value": "negligible weight loss prior to decomposition occurring"},
      {"measurement": "change in mass, as determined by dynamic vapor sorption", "setting": "[2]", "value": "about 0.03%"}
    ]}
  ]
}
